What all share (format): cell-based
The subject of experiment [1] is HCT116 (colon) carcinoma cell line. Kind of experiment: MTT antiproliferation assay, HCT116. An excerpt: (§1) Antiproliferation properties against normal RPE1 (human immortalized retinal pigment epithelial) cell line were also considered for safety/selectivity index (SI) determination of each respective agent synthesized (Table 1, Supplementary Figs. S61–S64). […]
(§2) All the biological studies conducted obey the standards and approved by the Research Ethics Committee, National Research Centre, Egypt (associated with project ID:
(§3) Antiproliferation properties
(§4) The synthesized compounds 12a‒j were screened for their antiproliferation properties against HCT116 (colon), MCF7 (breast) and PaCa2 (pancreatic) cancer cell lines by the standard mitochondrial dependent reduction of yellow MTT [3 -(4,5-dimethylthiazol-2- […]
(§5) considered as standard reference/drug. Cells were suspended in DMEM medium for MCF7, PaCa-2 and McCoy’s 5A for HCT116 in addition to 1% antibiotic–antimycotic mixture (10000 μg ml-1 potassium penicillin, 10000 μg ml-1 streptomycin sulfate and 25 μg ml-1 amphotericin B), 10% fetal bovine serum and 1% L-glutamine at 37 °C, under 5% CO2 and 95% humidity. Cells were seeded at concentration of 30000 cells per well in fresh complete growth medium in 96-well tissue culture microtiter plates for 24 h. Media […]
(§6) was aspirated, fresh complete medium was added and cells were incubated with different concentrations of the tested compound to give a final concentration of [50, 25, 12.5 and 6.25 μM “in addition to 3.125, 1.56 and 0.78 μM in case of high potent a nalogs”). 0.5% DMSO was used as a negative control. Triplicate wells were prepared for each individual dose. After 72 h of incubation, medium was aspirated, 40 μl MTT salt (2.5 mg ml -1) was added to each well and incubated for further 4 h at 37 °C. To stop the reaction and dissolve the formed crystals, 150 μl of 10% sodium dodecyl sulfate (SDS) in deionized water was added to each well and incubated overnight at 37 °C. The absorbance was then measured at 570 nm and a reference wavelength of 595 nm.
(§7) Data were collected as mean values for experiments performed in triplicates for each individual dose which had been measured by MTT assay. Control experiments did […]
(§8) The cell surviving fraction was calculated according to the following equation.
(§9) Surviving fraction = Opticaldensity(O.D.)oftreatedcells
(§10) The agents synthesized were also tested against RPE1 (normal human immortalized retinal pigment epithelial cell line) cell (in DMEM -F12 medium) to determine the toxicity/selectivity towards normal cells relative to the cancer cell lines […]
(§11) The IC50 (concentration required to produce 50% inhibition of cell growth compared to the control experiment) was determined using Graph-Pad PRISM version-5 software. Statistical calculations for determination of the mean and standard division (SD) values were determined by SPSS 16 so ftware. The observed anti-proliferative properties are presented in Table 1 ( Supplementary Figs. S61‒S64). […]
(In general: Tetrazolium assays rely on reduction of a dye to a coloured formazan, in cell work by metabolically active cells.)

Experiment [2] relates to RPE1 (human immortalized retinal pigment epithelial) cell line. The experiment can be described thus: MTT assay on normal cells for safety/selectivity. Particulars: RPE-1, read-out: IC50, μM ± SD, RPE1. As for the experimental part:
as §1, §6, §7, §8, §9, §10, §11

Experiment [3] has as its system MCF7 (breast) carcinoma cell line. The experiment can be described thus: MTT antiproliferation assay, MCF7.
Text: as §1, §2, §3, §4, §5, §6, §7, §8, §9, §10, §11

Experiment [4] deals with T1, VEGFR-2 (Homo sapiens, UniProt P35968).
T1 construct: lysed cells; endogenous in cells
T1 sequence (P35968 20-1356): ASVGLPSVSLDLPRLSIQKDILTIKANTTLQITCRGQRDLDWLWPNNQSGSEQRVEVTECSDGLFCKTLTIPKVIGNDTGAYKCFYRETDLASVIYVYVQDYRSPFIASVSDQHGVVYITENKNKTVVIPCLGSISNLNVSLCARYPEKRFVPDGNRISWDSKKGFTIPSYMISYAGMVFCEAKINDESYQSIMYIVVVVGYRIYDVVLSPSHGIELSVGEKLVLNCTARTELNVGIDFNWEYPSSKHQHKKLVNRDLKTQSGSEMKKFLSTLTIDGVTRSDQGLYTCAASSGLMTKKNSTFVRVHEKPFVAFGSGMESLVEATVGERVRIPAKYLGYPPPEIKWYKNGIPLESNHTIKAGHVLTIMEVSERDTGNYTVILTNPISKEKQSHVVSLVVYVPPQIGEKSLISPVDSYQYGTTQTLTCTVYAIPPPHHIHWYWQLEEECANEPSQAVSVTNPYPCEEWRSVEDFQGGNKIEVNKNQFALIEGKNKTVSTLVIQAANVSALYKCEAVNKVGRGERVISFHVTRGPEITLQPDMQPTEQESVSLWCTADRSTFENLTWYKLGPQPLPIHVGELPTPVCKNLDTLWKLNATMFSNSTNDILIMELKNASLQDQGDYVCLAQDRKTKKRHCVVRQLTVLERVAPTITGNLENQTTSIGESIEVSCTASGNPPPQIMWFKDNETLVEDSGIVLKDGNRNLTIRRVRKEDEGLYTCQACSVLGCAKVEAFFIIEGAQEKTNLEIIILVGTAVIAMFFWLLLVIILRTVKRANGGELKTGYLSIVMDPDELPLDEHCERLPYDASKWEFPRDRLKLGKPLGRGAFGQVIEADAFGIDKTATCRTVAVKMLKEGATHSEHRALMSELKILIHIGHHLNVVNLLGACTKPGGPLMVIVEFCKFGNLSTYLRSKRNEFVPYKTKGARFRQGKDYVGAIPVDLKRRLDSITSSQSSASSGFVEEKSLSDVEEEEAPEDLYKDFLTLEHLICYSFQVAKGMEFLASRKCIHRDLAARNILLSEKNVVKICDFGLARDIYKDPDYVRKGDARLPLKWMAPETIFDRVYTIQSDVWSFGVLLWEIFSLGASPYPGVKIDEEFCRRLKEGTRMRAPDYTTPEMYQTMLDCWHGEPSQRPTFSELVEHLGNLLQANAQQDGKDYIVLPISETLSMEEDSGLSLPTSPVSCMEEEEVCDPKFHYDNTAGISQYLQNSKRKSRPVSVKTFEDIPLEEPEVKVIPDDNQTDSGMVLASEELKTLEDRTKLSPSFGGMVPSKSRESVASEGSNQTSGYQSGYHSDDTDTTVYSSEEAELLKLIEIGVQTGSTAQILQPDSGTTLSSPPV
Kind of experiment: VEGFR-2 inhibitory properties by western blotting. The method, then: VEGFR-2 inhibitory properties […]
standard/drug) was determined at 10 μM by the western blotting technique obeying the manufacturer’s instruction (Santa Cruz Biotechnology, Inc .).5
Protein extraction procedure
The ReadyPrepTM protein extraction kit (total protein) provided by Bio-Rad Inc.
(Catalog #163-2086) employed by the manufacturer, was added to each sample of the lysed cells. Bradford Protein Assay Kit (SK3041) for quantitative protein analysis was provided by Bio-basic Inc. (Markham Ontario L3R 8T4 Canada). A Bradford assay was performed according to manufacturer’s instructions to determine protein concentration in each sample. 20 μg protein concentration of each sample was then loaded with an equal volume of 2x Laemmli sample buffer containing 4% SDS, 10% 2-mercaptoehtanol, 20% glycerol, 0.004% bromophenol blue and 0.125 M Tris HCl. The pH was checked and brought to 6.8. Each previous mixture was boiled at 95°C for 5 min to ensure denaturation of protein before loading on polyacrylamide gel electrophoresis.
Protein separation by electrophoresis
Samples were separated on a polyacrylamide gel; the procedure was abbreviated as SDS-PAGE form Sodium Dodecyl Sulfate PolyAcrylamide Gel Electrophoresis, which is a standard technique for separating proteins according to their molecular weight.
Polyacrylamide gels were performed using TGX Stain-Free™ FastCast™ Acrylamide Kit (SDS-PAGE), which was provided by Bio-Rad Laboratories inc Cat # 161-0181. The SDS-PAGE TGX Stain-Free FastCast was prepared according to manufacturer’s […]
Protein blotting (transfer of proteins from the gel to the membrane)
The gel was assembled in transfer sandwich from below to above (filter paper, PVDF membrane, gel and filter paper). The sandwich was placed in the transfer tank with 1x transfer buffer, which is composed of 25 mM Tris and 190 mM glycine and 20% methanol. Then, the blot was run for 7 min . at 25 V to allow protein bands transfer from gel to membrane using BioRad Trans-Blot Turbo.
The membrane was blocked in tris -buffered saline with Tween 20 (TBST) buffer and 3% bovine serum albumin (BSA) at room temperature for 1 hr. The components of blocking […]
buffer were as follow; 20 mM Tris pH 7.5, 150 mM NaCl, 0.1% Tween 20 and 3% bovine serum albumin (BSA).
Incubation with the primary antibody
Primary antibody of VEGFR2 was purchased. Primary antibody was diluted in TBST according to manufactured instructions.
Background: A western blot detects proteins with antibodies after separation by electrophoresis.

For experiment [5], the system named is PaCa2 (pancreatic) carcinoma cell line. The experiment can be described thus: MTT antiproliferation assay, PaCa2.
Text: as §1, §2, §3, §4, §5, §6, §7, §8, §9, §10, §11

For `O=C(Nc1ccccc1)Nc1cccc(C(=O)/C=C2/C(=O)Nc3ccc(Cl)cc32)c1` [Compound 12e, (E)-1-{3-[2-(5-Chloro-2-oxoindolin-3-ylidene)acetyl]phenyl}-3-phenylurea], the IC50 – broadly, the concentration needed to halve the response being measured – in experiment [1] (Homo sapiens, HCT-116, MTT, 72 h incubation, HCT116 (colon), read-out: IC50, μM ± SD, HCT116) was 11.9 ± 2.53 µM; in experiment [2] it was 14.6 ± 0.316 µM; in experiment [3] (Homo sapiens, MTT, 72 h incubation, MCF7 (breast), read-out: IC50, μM ± SD, MCF7) it was 3.91 ± 0.78 µM; in experiment [5] (PaCa-2, MTT, 72 h incubation, PaCa2 (pancreatic), read-out: IC50, μM ± SD, PaCa2), 7 ± 1.11 µM. In addition, the “SI (safety/selectivity index), HCT116” value in experiment [1] (in brackets after IC50, normal RPE1 relative to HCT116) amounted to 1.229. Besides, the “SI (safety/selectivity index), MCF7” value in experiment [3] (in brackets after IC50, normal RPE1 relative to MCF7) turned out to be 3.738. Besides, the “Relative quantification (RQ)” value in experiment [4] (VEGFR-2 western blot band, normalised to beta actin, at 10 μM, control RQ 3.290) is 0.538. Further, the inhibition (as a rule, how much of the control response was suppressed) at 10 µM in experiment [4] (western blotting, read-out: % Inhibition against VEGFR-2) came to 83.6%. Besides, the “SI (safety/selectivity index), PaCa2” value in experiment [5] (in brackets after IC50, normal RPE1 relative to PaCa2) came to 2.087.

Values taken from paper PMC11699130, “Design and synthesis of antiproliferative 2-oxoindolin-3-ylidenes incorporating urea function with potential VEGFR-2 inhibitory properties” (Scientific Reports, 2025).
